One block for each molecule: values may come before it.
Key:
p21^Cip1/WAF1 [1] = test: CDKN1A gene and p21^Cip1/WAF1 protein expression in PBs; format: cell-based, human; conditions: PBs treated conjointly by MG-132 and PIMi
Text: (§1) Like p27^Kip1, p21^Cip1/WAF1 is a tight-binding inhibitor of CDKs and inhibits cell cycle entry into S phase (Elledge et al., 1996). Plasmablast commitment leads to a significant increase of the CDKN1A gene, which encodes p21^Cip1/WAF1, and this independently to the expression of TP53 (data not shown). […] We then wondered whether PIM2 could modify p21^Cip1/WAF1 expression. […] To address this scenario, we developed endogenous protein immunoprecipitation (IP) and found in generated PBs and XG21 cell line as well that PIM2, p21^Cip1/WAF1 and HSP90β form a cytoplasmic multiprotein complex (data not shown).

ePCs = test: Apoptosis markers in early plasma cells (ePCs) by western blot; format: cell-based, human
Text: Plasma cell maturation is a continuum that spans from PBs to fully mature PCs corresponding to long-lived PCs such as those residing in the bone marrow (BM) PC niche where their survival depends on various extrinsic factors. […] We then explored PIM2 expression at the protein level in CD138^+ or BCMA^+ PCs on BM biopsies from patients free from malignant hemopathies obtained from the Pathology department of our institution (F. Llamas-Gutierrez). Single staining was firstly tested by chromogenic immunohistochemistry (CIH) or immunofluorescence (IF) on paraffin-embedded tissue sections followed by multiple staining by IF. Both, CD138 and BCMA staining allowed to identify PCs with, in some areas, high number of positive cells that possibly were close from CD41-positive megakaryocytes and enriched for IL-6 expression (data not shown). In addition, all observed BM PCs expressed PIM2 with a strong intensity (data not shown). To determine the regulation and functional contribution of PIM2 in mature PCs, we produced CD38^hi/CD138^+ PCs by leaving D7 to D10 generated PBs in culture media containing IL-2, IL-10, IL-6 and IFN-alpha (data not shown). Under this condition, the number of CD138^+ cells increased progressively while the number of cells in S-phase of the cell cycle decreased gradually with, respectively, 60.3±8.1% and 3.5±0.3% at D10 (data not shown). In parallel, cells decreased and increased, respectively, the expression of CDC25A and CDKN1B with for the latter, p27^Kip1 protein exclusively detectable in the nucleus at D10 as expected for fully differentiated cells arrested in the cell cycle (data not shown). […] In addition, in these cells, compared to PBs, we observed an increase of PIM2 gene expression as well as its protein level (data not shown).
We then investigated the other factors described above at the protein levels and detected by western blot in ePCs compared to PBs—and besides p27^Kip1 and PIM2—a significant elevation of Caspase 3 and p21^Cip1/WAF1 protein expression (data not shown).

PBs [2] = test: Mitochondria/Caspase 3-driven apoptosis and viability of PBs; format: cell-based, human
Text: Mitochondrial-driven cell death is activated once the mitochondria lose the ability to maintain the inner membrane potential, resulting in the release of proapoptotic proteins into the cytosol. Commitment towards PBs is sustained by an extensive reconfiguration of the epigenetic landscape and of gene expression patterns, both showing that the most prominent function involves cell death and survival (Caron et al., 2015). […] We then investigated the different cell subsets generated through the differentiation model at the protein level for factors involved in apoptosis triggered by mitochondria (data not shown). The PBs compared to all other subsets increased the expression of pBAD and XIAP, both proteins counteract the apoptotic pathway and were described in PIM2-induced survival effect (data not shown) (Fox, 2003; Macdonald et al., 2006; Yan et al., 2003). In accordance with this finding and despite a strong increase in procaspase 3 protein (32 kDa size), PBs decrease the autocatalytic activity of Caspase 3 and therefore the production of p19/p17 apoptosis executors as highlighted by the low levels of cleaved PARP (data not shown) (Ponder and Boise, 2019). […] In addition, we found in P2/CD23+ cells a complete degradation of PARP which illustrate the fact that the apoptosis process is consubstantially associated with the B cell terminal differentiation if cells are not otherwise protected (data not shown).
We then inhibited PIM2 which led to an intense activation of Caspase 3 and a decrease of viability of PBs. The latter was rescued by the Caspase 3 inhibitor Q-DEVD-OPH (data not shown).
(§2) The differentiation of immature monocytes is associated with a relocalization of nuclear p21^Cip1/WAF1 to the cytoplasm where the protein participates to apoptosis blockage (Asada, 1999). In addition, Suzuki et al. ascribed the formation of a Procaspase 3/p21^Cip1/WAF1 complex in the context of resistance to Fas-mediated cell death owing to the phosphorylation of p21 by protein kinase A (Suzuki et al., 2000). We wanted therefore to explore whether p21^Cip1/WAF1 may bind Procaspase 3 and developed to this end a FRET approach which detected a signal of energy transfer compatible with such physical interaction. […] We then confirmed the binding between p21^Cip1/WAF1 and Caspase 3 in XG21 cells and in PBs by IP (data not shown). Finally, to confirm the anti-apoptotic role of cytoplasmic p21^Cip1/WAF1 in PBs we inhibited p21^Cip1/WAF1 expression by a siRNA targeting CDKN1A in in vitro D4 B cells (data not shown) and found an activation of the execution of apoptosis characterized by the detection of the p17-fragment cleavage of caspase 3 in parallel to the cleavage of PARP (data not shown) and similar results were found in XG21 cells (data not shown). […] The role of PIM2 is to stabilize p21^Cip1/WAF1 protein in the cytoplasm allowing therefore the formation a multiprotein complex which inhibits Caspase 3 full activation (data not shown).

PBs [3] = test: Number of PBs in S-phase of the cell cycle; format: cell-based, human
Text: (§3) Since PIM2 acts at multiple cellular levels, we wanted to investigate how this kinase impacts this step of the differentiation. […] To explore this hypothesis, we investigated the G1/S transition of the cell cycle by using the multiple myeloma-derived cell line XG21 which presents an IL-6/STAT3-dependent PIM2 expression and proliferation (data not shown). To this end, we established a double thymidine block to arrest cells in G1-phase, and then released thymidine before subsequent cell cycle analysis. […] In presence of PIM2 blockade regardless of the type of inhibition, cells remained largely arrested in G1 phase until 16 h before starting to die (data not shown). The transition of G1 to S phase of the cell cycle requires the phosphatase CDC25A. We found a significant increase of CDC25A gene expression in PBs compared to CD23+ aBC and chemical inhibition of the phosphatase led to a dramatic decrease of the number of PBs in S phase (data not shown). We then wondered whether PIM2 has an effect on CDC25A as described for PIM1 which increased the catalytic activity after its binding to the phosphatase (Mochizuki et al., 1999). By western blot we detected CDC25A protein in PBs which disappeared in presence of PIMi (data not shown). PIM2 blockade led also to the downregulation of CDC25A and MKI67 gene expression (data not shown).

p21^Cip1/WAF1 [4] = test: p21^Cip1/WAF1 protein expression in XG21 cells; format: cell-based, human; conditions: XG21 cells treated conjointly by MG-132 and PIMi
Text: as §1

[5] = system: p21^Cip1/WAF1/Procaspase 3 complex; test: FRET between p21^Cip1/WAF1 and Procaspase 3; format: cell-based; conditions: added to the cell culture
Text: as §2

CDC25A = CDC25A protein in PBs by western blot; format: cell-based, human
Text: as §3

MM = test: Combinations of increasing drug-concentration of PIM inhibitor and MCL1 inhibitor; format: cell-based; conditions: increasing concentrations of both drugs
[6] = system: activated B cells diverted from the PB commitment; test: Apoptosis of activated B cells diverted from the PB commitment at D6; format: cell-based, human; conditions: D6, original in vitro model
Text: Mitochondrial-driven cell death is activated once the mitochondria lose the ability to maintain the inner membrane potential, resulting in the release of proapoptotic proteins into the cytosol. Commitment towards PBs is sustained by an extensive reconfiguration of the epigenetic landscape and of gene expression patterns, both showing that the most prominent function involves cell death and survival (Caron et al., 2015). […] We then investigated the different cell subsets generated through the differentiation model at the protein level for factors involved in apoptosis triggered by mitochondria (data not shown). The PBs compared to all other subsets increased the expression of pBAD and XIAP, both proteins counteract the apoptotic pathway and were described in PIM2-induced survival effect (data not shown) (Fox, 2003; Macdonald et al., 2006; Yan et al., 2003). In accordance with this finding and despite a strong increase in procaspase 3 protein (32 kDa size), PBs decrease the autocatalytic activity of Caspase 3 and therefore the production of p19/p17 apoptosis executors as highlighted by the low levels of cleaved PARP (data not shown) (Ponder and Boise, 2019). […]

XG21 = test: Caspase 3 activation in XG21; format: cell-based, human
Text: as §2

MM cell lines = test: PIM2 protein expression and drug effects in MM cell lines; format: cell-based, human; conditions: western blot, after proteasome inhibition
Text: Using data of the Dependency Map (DepMap) portal (https://depmap.org/portal/), we evaluated mRNA expression of PIM2 in silico across >700 different malignant cell lines, including 20 MM cell lines. […] This was specific to PIM2, as PIM1 expression is not overexpress in MM cell lines (data not shown). We confirm the high expression of PIM2 protein in eight MM lines, which correlates well with RNA expression, noting however a large heterogeneity of expression (data not shown) Also, using CRISPR screening of DepMap data, dependency scores of PIM2 underline their specific importance for MM cell survival compared to all cell lines tested, and as compared to PIM1 data not shown). To evaluate potential correlations between PIM2 expression and clinicals outcomes, we analyzed TT2 cohort of the university of Arkansas and within the myeloma patient molecular subgroups. […] Our analysis of the CoMMpass cohort also as PIM2 expression above the cutoff (determined by MaxStat method) in the large dataset correlated with shorter overall survival (P=0.000573) (data not shown). […] These last result fit well with the fact that PIM2 protein expression increase after proteasome inhibition with drug as carfilzomib as show by western blot in MM cell lines (data not shown), leading to an increase of their prosurvival activity as shown described (Adam et al., 2015).

- FRET signal of energy transfer p21^Cip1/WAF1 / Procaspase 3 [5]: abolished the signal
Molecule: N[C@@H]1CCCN(c2c(/C=C3\SC(=O)NC3=O)cccc2-c2ccccc2)C1 [PIMi, AZD1208]
- p21^Cip1/WAF1 expression (p21^Cip1/WAF1 [1]): maintained their p21^Cip1/WAF1 expression but in a poly-ubiquitinylated form
- Caspase 3 activation (ePCs): activation of Caspase 3 with production of the catalytic active p17 fragment
- XIAP protein (ePCs): decrease of XIAP protein
- cleaved-Caspase 9 fragment (ePCs): increase of cleaved-Caspase 9 fragment
- p21^Cip1/WAF1 expression (ePCs): decrease of p21^Cip1/WAF1 expression
- cleaved PARP protein (PBs [2]; PBs): production of cleaved PARP protein
- mitochondrial depolarization (PBs [2]; PBs): strong mitochondrial depolarization
- pBAD and XIAP protein (PBs [2]; PBs): decrease of pBAD and XIAP
- number of PBs in S-phase (PBs [3]): decreased drastically, in a dose-dependent manner
- p21^Cip1/WAF1 expression (p21^Cip1/WAF1 [4]): maintained their p21^Cip1/WAF1 expression but in a poly-ubiquitinylated form
- CDC25A protein in PBs (CDC25A): disappeared
- synergy of the combination AZD1208 and AZD5991 (MM): hard synergy

Molecule: CC(C)[C@H](NC(=O)c1ccc2ccccc2n1)C(=O)N[C@@H](CC(=O)O)C(=O)COc1c(F)cccc1F [QVD-OPH]
- rescue from apoptosis [6]: rescued from apoptosis

Molecule: O=C(Nc1ccc(Cl)c(C(F)(F)F)c1)NC1CCC(Oc2ccc(C(F)(F)F)cn2)CC1 (centres unmarked) [UC2288]
- Caspase 3 activation (XG21): dose-dependent increase of Caspase 3 activation
- Caspase 3 activation (PBs [2]; PBs): dose-dependent increase of Caspase 3 activation
- apoptosis induction (PBs [2]; by inhibiting p21^Cip1/WAF1 protein expression): induced a Caspase 3-mediated apoptosis

Molecule: CC(C)C[C@H](NC(=O)[C@H](CCc1ccccc1)NC(=O)CN1CCOCC1)C(=O)N[C@@H](Cc1ccccc1)C(=O)N[C@@H](CC(C)C)C(=O)[C@@]1(C)CO1 [carfilzomib]
- PIM2 protein expression (MM cell lines): increase

Molecule: Q-DEVD-OPH
- viability of PBs after PIM2 inhibition (PBs [2]; Caspase 3 inhibitor added to PIM2-inhibited PBs): rescued
- cell viability after UC2288 (PBs [2]; Caspase 3 inhibitor added to UC2288-treated cells): restores cell viability

— patent US20240368605A1, “USE OF SPLICE SWITCHING OLIGONUCLEOTIDES FOR EXON SKIPPING-MEDIATED KNOCKDOWN OF PIM2” (INSTITUT NATIONAL DE LA SANTÉ ET DE LA RECHERCHE MÉDICALE, priority 2021, published 2024)
